# Read-outs that look alike come from different tables or passages of the source.
# Experiments:
# plasma kallikrein (PKa) = target: T1, plasma kallikrein (PKa) (Homo sapiens, UniProt P03952); assay: Inhibitory activity against plasma kallikrein in vitro (fluorescence intensity enzyme assay, Pro-Phe-Arg-AMC substrate); assay type: biochemical
# T1 construct: purchased R & D 2497-SE
# Method: Test of the inhibitory activities of the compounds of the present invention against plasma kallikrein (PKa), KLK1 and FXIa in vitro.
# The final concentrations of enzyme protein and Pro-Phe-Arg-AMC in the reaction mixture were 10 nM and 60 µM, respectively. The starting concentration of the positive reference substance Avoralstat was 100 nM, 3-fold dilution, 10 + 0 dose. 0.05 µL of compound in 100% DMSO was delivered to a 384-well plate by an acoustic liquid delivery technique (Echo665; nanoliter range). Compound duplex test. […] IC50 values and nonlinear regression curve fitting were obtained using GraphPad Prism software.
# FXIa = FXIa (Homo sapiens, UniProt P03951); assay: Inhibitory activity against FXIa in vitro (biochemical assay); details: values given in µM
# FXIa, sequence (P03951 388-625 limits assumed): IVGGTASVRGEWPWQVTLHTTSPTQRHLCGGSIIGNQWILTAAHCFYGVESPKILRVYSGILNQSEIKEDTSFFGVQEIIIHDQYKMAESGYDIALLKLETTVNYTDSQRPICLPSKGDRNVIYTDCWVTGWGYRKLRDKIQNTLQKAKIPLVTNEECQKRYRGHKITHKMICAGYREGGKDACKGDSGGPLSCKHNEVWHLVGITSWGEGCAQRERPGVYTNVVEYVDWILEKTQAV
# FXIa, sequence (P03951 19-387 partner limits assumed): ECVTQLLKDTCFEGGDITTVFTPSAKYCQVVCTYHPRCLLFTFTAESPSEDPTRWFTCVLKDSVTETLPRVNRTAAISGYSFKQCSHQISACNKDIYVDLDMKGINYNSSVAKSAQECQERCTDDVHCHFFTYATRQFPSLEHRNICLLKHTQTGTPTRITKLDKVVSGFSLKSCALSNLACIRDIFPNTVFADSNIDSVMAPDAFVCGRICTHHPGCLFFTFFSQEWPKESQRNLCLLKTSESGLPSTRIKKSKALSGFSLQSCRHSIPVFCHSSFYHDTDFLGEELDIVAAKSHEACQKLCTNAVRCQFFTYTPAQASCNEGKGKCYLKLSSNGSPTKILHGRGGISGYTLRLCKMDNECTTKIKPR
# Method: Test Example 1. Test of the inhibitory activities of the compounds of the present invention against plasma kallikrein (PKa), KLK1 and FXIa in vitro.
# PKK (R & D, Cat # 2497-SE) and Pro-Phe-Arg-AMC (Nanjing Peptide, Cat # NJP23946) solutions were prepared in reaction buffer (50 mM Tris-HCl, pH 7.5, 250 mM NaCl). The final concentrations of enzyme protein and Pro-Phe-Arg-AMC in the reaction mixture were 10 nM and 60 µM, respectively. The starting concentration of the positive reference substance Avoralstat was 100 nM, 3-fold dilution, 10 + 0 dose. 0.05 µL of compound in 100% DMSO was delivered to a 384-well plate by an acoustic liquid delivery technique (Echo665; nanoliter range). Compound duplex test. 5 µL of 2 × enzyme solution was transferred to a 384 reaction plate and centrifuged at 1000 rpm for 1 minute, incubated at 25°C for 15 minutes; 5 µL of 2 × Pro-Phe-Arg-AMC solution was transferred to a 384 reaction plate, centrifuged at 1000 rpm for 1 minute, incubated at 25°C for 3 hours. […] IC50 values and nonlinear regression curve fitting were obtained using GraphPad Prism software.
# KLK1 = KLK1 (Homo sapiens, UniProt P06870); assay: Inhibitory activity against KLK1 in vitro (biochemical assay); details: values given in µM
# KLK1, sequence (P06870 25-262, species assumed): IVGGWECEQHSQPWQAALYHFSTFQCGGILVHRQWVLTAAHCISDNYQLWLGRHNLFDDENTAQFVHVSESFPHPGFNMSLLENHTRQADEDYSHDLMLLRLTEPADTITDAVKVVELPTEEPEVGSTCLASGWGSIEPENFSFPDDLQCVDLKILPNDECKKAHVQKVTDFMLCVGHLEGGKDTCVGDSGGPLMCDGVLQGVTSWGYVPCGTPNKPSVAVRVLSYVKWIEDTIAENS
# Text: Test Example 1. Test of the inhibitory activities of the compounds of the present invention against plasma kallikrein (PKa), KLK1 and FXIa in vitro. […]
# [1] = plasma kallikrein enzyme assay, Pro-Phe-Arg-AMC substrate, read-out: PKa IC50
# T1 sequence (P03952 391-638 limits assumed): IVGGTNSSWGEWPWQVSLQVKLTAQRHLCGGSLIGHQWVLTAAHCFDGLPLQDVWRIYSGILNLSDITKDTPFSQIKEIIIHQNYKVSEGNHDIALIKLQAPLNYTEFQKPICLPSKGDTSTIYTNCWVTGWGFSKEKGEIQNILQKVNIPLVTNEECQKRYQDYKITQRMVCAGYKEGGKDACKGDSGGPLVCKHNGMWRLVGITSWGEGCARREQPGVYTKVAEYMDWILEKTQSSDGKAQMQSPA
# T1 sequence (P03952 20-390 partner limits assumed): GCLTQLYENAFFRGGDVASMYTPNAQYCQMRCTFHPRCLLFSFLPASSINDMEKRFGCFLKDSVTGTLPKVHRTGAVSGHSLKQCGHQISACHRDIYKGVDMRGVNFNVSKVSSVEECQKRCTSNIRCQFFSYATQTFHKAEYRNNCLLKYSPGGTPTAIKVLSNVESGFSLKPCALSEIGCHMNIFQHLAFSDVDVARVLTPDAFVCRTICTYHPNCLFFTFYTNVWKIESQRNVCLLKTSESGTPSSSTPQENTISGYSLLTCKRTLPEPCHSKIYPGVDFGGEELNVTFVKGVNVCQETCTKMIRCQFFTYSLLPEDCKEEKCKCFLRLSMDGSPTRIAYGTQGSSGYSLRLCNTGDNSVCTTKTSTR
Compound,IC50 (plasma kallikrein (PKa); [1]) [nM],also measured
Cc1cc(N)nc(C)c1CNC(=O)c1cnn(Cc2ccc(N3CC4C(C3)C4(F)F)cc2C#N)c1 (centres unmarked) [Compound 20],–,IC50 (plasma kallikrein (PKa); read-out: PKa IC50): 0.155 nM; IC50 (FXIa): > 10 µM
COCc1nn(Cc2ccc(Cn3ccccc3=O)cc2)cc1C(=O)NCc1ncc2c(c1F)N(C)CC2 [Compound 146],–,IC50 (KLK1): > 10 µM; IC50 (FXIa): > 10 µM
CNC(=N)c1ccc(CNC(=O)c2cnn(Cc3ccc(CC4CC4)cc3)c2)cc1 [Compound 271],855,–
O=C(NCc1nccc(C2CC2)c1F)c1cn(Cc2ccc(Cn3ccccc3=O)cc2)nc1N1CC(F)(F)C1 [Compound 272],42,–
O=C(NCc1nccc(NC2CCC2)c1F)c1cn(Cc2ccc(Cn3ccccc3=O)cc2)nc1C1COC1 [Compound 273],> 1000,–
N=C(N)c1ccc(CNC(=O)c2cn(Cc3ccc(CC4CC4)cc3)nc2C(F)(F)F)c(F)c1 [Compound 275],56,–
O=C(NCc1nccc(NCC2CC2)c1F)c1cn(Cc2ccc(Cn3ccccc3=O)cc2)nc1C1COC1 [Compound 276],> 1000,–
O=C(NCc1nccc(NCC2CC2)c1F)c1cn(Cc2ccc(Cn3ccccc3=O)cc2)nc1N1CC(F)(F)C1 [Compound 277],> 1000,–
O=C(NCc1nccc(NC2CCC2)c1F)c1cn(Cc2ccc(Cn3ccccc3=O)cc2)nc1N1CC(F)(F)C1 [Compound 278],> 1000,–
CC(C)CNc1ccnc(CNC(=O)c2cn(Cc3ccc(Cn4ccccc4=O)cc3)nc2N2CC(F)(F)C2)c1F [Compound 279],> 1000,–
Cc1cc(N)nc(C)c1CNC(=O)c1cnn(Cc2ccc(CC3CC3)cc2)c1 [Compound 280],2.64,–
COc1ccc(F)c(CNC(=O)c2cn(Cc3ccc(Cn4cc(F)ccc4=O)cc3)nc2N2CC(F)(F)C2)c1F [Compound 281],24.9,–
COc1ccnc(COC(=O)c2cn(Cc3ccc(Cn4cc(F)ccc4=O)cc3)nc2NC2(C)COC2)c1F [Compound 284],3.41,–
COc1ccc(F)c(CNC(=O)c2cn(Cc3ccc(Cn4cc(F)ccc4=O)cc3)nc2COCC2(C)COC2)c1F [Compound 285],10.5,–
COc1ccnc(CNC(=O)c2cn(Cc3ccc(Cn4cc(F)ccc4=O)cc3)nc2COCC2(C)COC2)c1F [Compound 286],10.8,–
COc1ccnc(CNC(=O)c2cn(Cc3ccc(Cn4ccccc4=O)cc3)nc2N2CC3(COC3)C2)c1F [Compound 288],11.5,–
COc1ccc(Cl)c(CNC(=O)c2cn(Cc3ccc(Cn4ccccc4=O)cc3)nc2N2CC(F)(F)C2)c1F [Compound 290],4.62,–
COc1ccc(F)c(CNC(=O)c2cn(Cc3ccc(Cn4ccccc4=O)cc3)nc2N2CC(C)(OC)C2)c1F [Compound 291],5.9,–
COc1ccnc(CNC(=O)c2cn(Cc3ccc(Cn4ccccc4=O)cc3)nc2COC2CCCOC2)c1F (centres unmarked) [Compound 294],10.6,–

Compound,IC50 (plasma kallikrein (PKa); [1]) [nM],also measured
COc1ccnc(CNC(=O)c2cn(Cc3ccc(Cn4ccccc4=O)cc3)nc2COC2CCOCC2)c1F [Compound 295],16.3,–
COc1ccnc(CNC(=O)c2cn(Cc3ccc(Cn4ccccc4=O)cc3)nc2NC2(C)COC2)c1F [Compound 297],2.83,–
COc1ccc(F)c(CNC(=O)c2cn(Cc3ccc(Cn4cc(F)ccc4=O)cc3)nc2N[C@H]2CCOC2)c1F [Compound 298],2.79,–
COc1ccnc(CNC(=O)c2cn(Cc3ccc(Cn4ccccc4=O)cc3)nc2COCC(C)(C)OC)c1F [Compound 299],11.2,–
COc1ccc(F)c(CNC(=O)c2cn(Cc3ccc(Cn4ccccc4=O)cc3)nc2NC2(C)COC2)c1F [Compound 300],1.94,–
COc1ccnc(CNC(=O)c2cn(Cc3ccc(Cn4ccccc4=O)cc3)nc2-c2cnccn2)c1F [Compound 301],24.9,–
COc1ccnc(CNC(=O)c2cn(Cc3ccc(Cn4ccccc4=O)cc3)nc2-c2cncnc2)c1F [Compound 304],7.24,–
COc1ccnc(CNC(=O)c2cn(Cc3ccc(Cn4ccccc4=O)cc3)nc2CN2C(=O)CC(C)(C)CC2=O)c1F [Compound 305],12.4,–
COCC1CN(c2nn(Cc3ccc(Cn4ccccc4=O)cc3)cc2C(=O)NCc2nccc(OC)c2F)C1 [Compound 306],12.8,–
COc1ccnc(CNC(=O)c2cn(Cc3ccc(Cn4ccccc4=O)cc3)nc2N2CC(OC(C)C)C2)c1F [Compound 307],4.57,–
COc1ccnc(CNC(=O)c2cn(Cc3ccc(Cn4ccccc4=O)cc3)nc2CN2C(=O)CCCC2=O)c1F [Compound 308],3.49,–
COc1ccnc(CNC(=O)c2cn(Cc3ccc(Cn4ccccc4=O)cc3)nc2CN2C[C@H](C)O[C@@H](C)C2)c1F [Compound 309],273,–
CC(C)Cc1ccc(Cn2cc(C(=O)NCc3ccc(C(=N)N)cc3)cn2)cc1 [Compound 312],2,–
CN(C)c1ccnc(CNC(=O)c2cn(Cc3ccc(Cn4ccccc4=O)cc3)nc2N2CC3(C2)OCC3(C)C)c1F [Compound 313],3.24,–
Cc1cc(C(=N)N)nc(C)c1CNC(=O)c1cnn(Cc2ccc(CC3CC3)cc2)c1 [Compound 323],65.6,–
O=C(NCc1nccc2[nH]ccc12)c1cn(Cc2ccc(Cn3ccccc3=O)cc2)nc1C1COC1 [Compound 325],38.6,–
N=C(N)c1cnc(CNC(=O)c2cnn(Cc3ccc(CC4CC4)cc3)c2)nc1 [Compound 329],42.4,–
N=C(N)c1cnc(CNC(=O)c2cnn(Cc3ccc(CC4CC4)cc3)c2)cn1 [Compound 330],855,–
O=C(NCc1nccc(NC2COC2)c1F)c1cn(Cc2ccc(Cn3ccccc3=O)cc2)nc1C1COC1 [Compound 331],> 1000,–

Compound,IC50 (plasma kallikrein (PKa); [1]) [nM],also measured
O=C(NCc1nccc(NC2COC2)c1F)c1cn(Cc2ccc(Cn3ccccc3=O)cc2)nc1N1CC(F)(F)C1 [Compound 332],540,–
O=C(NCc1nccc(N2CCCC2)c1F)c1cn(Cc2ccc(CC3CC3)cc2)nc1C1COC1 [Compound 333],> 1000,–
CN(C)c1ccnc(CNC(=O)c2cn(Cc3ccc(CC4CC4)cc3)nc2C2COC2)c1F [Compound 334],421,–
Cn1ccc2c(CNC(=O)c3cn(Cc4ccc(Cn5ccccc5=O)cc4)nc3C3COC3)nccc21 [Compound 336],13.9,–
O=C(NCc1nccc(C2CC2)c1F)c1cn(Cc2ccc(Cn3ccccc3=O)cc2)nc1C1COC1 [Compound 339],31.6,–
O=C(NCc1nccc(C2CC2)c1F)c1cn(Cc2ccc(Cn3ccccc3=O)cc2)nc1C1CC(F)(F)C1 [Compound 340],48,–
CN(C)c1ccnc(CNC(=O)c2cn(Cc3ccc(Cn4ccccc4=O)cc3)nc2C2CC(F)(F)C2)c1F [Compound 342],6.29,–
O=C(NCc1nccc(C2CC2)c1F)c1cn(Cc2ccc(CC3CC3)cc2)nc1C1COC1 [Compound 343],> 1000,–
CNc1ccnc(CNC(=O)c2cn(Cc3ccc(CC4CC4)cc3)nc2C2COC2)c1F [Compound 344],237,–
O=C(NCc1nccc(N2CCC2)c1F)c1cn(Cc2ccc(Cn3ccccc3=O)cc2)nc1C1COC1 [Compound 346],5.64,–
"N/C(=N\O)c1ccc(CNC(=O)c2cnn(Cc3ccc(CC4CC4)cc3)c2)cc1 [Compound 348, (Z)-1-(4-(cyclopropylmethyl)benzyl)-N-(4-(N'-hydroxycarbamoyl)benzyl)-1H-pyrazole-4-carboxamide]",–,"IC50 (plasma kallikrein (PKa); PKa IC50, plasma kallikrein enzyme assay, Pro-Phe-Arg-AMC substrate): 3.75 nM"
O=C(NCc1nccc(-n2nccn2)c1F)c1cn(Cc2ccc(Cn3ccccc3=O)cc2)nc1C1COC1 [Compound 352],90,–
N=C(N)c1cnc(CNC(=O)c2cnn(Cc3ccc(CC4CC4)cc3)c2)c(F)c1 [Compound 358],6.06,–
N=C(N)c1ccc(CNC(=O)c2cnn(Cc3c(Cl)cc(OCC4CC4)cc3Cl)c2)cc1 [Compound 359],3.15,–
N=C(N)c1ccc(CNC(=O)c2cnn(Cc3ccc(OCC4CC4)cc3)c2)cc1 [Compound 360],3.29,–
Cn1cc(Cl)c2cnc(CNC(=O)c3cnn(Cc4ccc(Cn5ccccc5=O)cc4)c3)c(F)c21 [Compound 367],43,–
"O=C(NCc1ncc2ccn(CCO)c2c1F)c1cnn(Cc2ccc(Cn3ccccc3=O)cc2)c1 [Compound 369, N-((7-fluoro-1-(2-hydroxyethyl)-1H-pyrrolo[3,2-c]pyridin-6-yl)methyl)-1-(4-((2-oxopyridin-1(2H)-yl)methyl]benzyl)-1H-pyrazole-4-carboxamide]",787,–
Cn1ncc2cnc(CNC(=O)c3cnn(Cc4ccc(Cn5ccccc5=O)cc4)c3)c(F)c21 [Compound 376],67,–
"N-((3-fluoro-4-methoxypyridin-2-yl)methyl)-3-(methoxymethyl)-1-(4-((2-oxo-2,3-dihydro-1H-pyrrolo[3,2-b]pyridin-1-yl)methyl]benzyl)-1H-pyrazole-4-carboxamide [Compound 113]",> 100,–
